Test results taken from ChEMBL document CHEMBL5154799, “Discovery of a Novel Stilbene Derivative as a Microtubule Targeting Agent Capable of Inducing Cell Ferroptosis” (J Med Chem, 2022).
The source made the active and inactive calls. No cut-off for these calls is given here.

How the values were obtained:
A549 [1] = experiment: Induction of cell death in human A549 cells assessed as vanished mitochondrial cristae at 10 nM for 12 hrs by TEM analysis; type: functional, cell-based
A2780 = experiment: Antiproliferative activity against human A2780 cells assessed as cell viability incubated for 48 hrs by MTT assay; type: functional, cell-based; conditions: A2780, 48 h
MCF7 [2] = experiment: Antiproliferative activity against human MCF7 cells assessed as cell viability incubated for 48 hrs by MTT assay; type: functional, cell-based; conditions: MCF7, 48 h
HeLa = experiment: Antiproliferative activity against human HeLa cells assessed as inhibition of cell proliferation incubated for 2 hrs by CCK-8 assay; type: functional, cell-based; conditions: DDE = dose-dependent effect
HCT-8 [3] = experiment: Antiproliferative activity against human HCT-8 cells assessed as inhibition of cell proliferation incubated for 2 hrs by CCK-8 assay; type: functional, cell-based; conditions: DDE = dose-dependent effect
MCF7 [4] = experiment: Antiproliferative activity against human MCF7 cells assessed as inhibition of cell proliferation incubated for 2 hrs by CCK-8 assay; type: functional, cell-based; conditions: DDE = dose-dependent effect
LoVo = experiment: Antiproliferative activity against human LoVo cells assessed as inhibition of cell proliferation incubated for 2 hrs by CCK-8 assay; type: functional, cell-based; conditions: DDE = dose-dependent effect
MGC-803 = experiment: Antiproliferative activity against human MGC-803 cells assessed as inhibition of cell proliferation incubated for 2 hrs by CCK-8 assay; type: functional, cell-based; conditions: DDE = dose-dependent effect
[5] = Cytotoxicity against HLF cells assessed as reduction in cell viability; type: toxicity, cell-based; conditions: human
[6] = Cytotoxicity against human MCF-10A cells assessed as reduction in cell viability; type: toxicity, cell-based
[7] = Selectivity ratio of IC50 for cytotoxicity against human L02 cells assessed as reduction in cell viability to IC50 for cytotoxicity against human A549 cells assessed as reduction in cell viability; type: toxicity, cell-based; conditions: L02 cells versus A549 cells
[8] = Selectivity ratio of IC50 for cytotoxicity against human MCF-10A cells assessed as reduction in cell viability to IC50 for cytotoxicity against human A549 cells assessed as reduction in cell viability; type: toxicity, cell-based; conditions: MCF-10A cells versus A549 cells
A549 [9] = experiment: Resistance index, ratio of IC50 for antiproliferative activity against human adriamycin-resistant A549/ADR cells to IC50 for antiproliferative activity against human A549 cells; type: functional
HCT-8 [10] = experiment: Antiproliferative activity against human vincristine-resistant HCT-8/VCR cells assessed as cell viability incubated for 48 hrs by MTT assay; type: functional, cell-based; conditions: HCT-8, 48 h
[11] = Resistance index, ratio of IC50 for antiproliferative activity against human paclitaxel-resistant A2780/TAX cells to IC50 for antiproliferative activity against human A2780 cells; type: functional
Tubulin = experiment: Inhibition of tubulin polymerization (unknown origin) assessed as fluorescence intensity emission at 410 nm for 60 mins; type: protein-complex assay, Homo sapiens
Tubulin (Homo sapiens) [12] = molecular target: T1, Tubulin (Homo sapiens) (UniProt P68371+Q9H4B7+P0DPH7+P68366+Q13509+Q71U36+P04350+Q3ZCM7+P07437+P68363+Q9BQE3+Q6PEY2+Q13885+Q9BVA1+Q9BUF5); experiment: Inhibition of [3H]colchicine binding to tubulin (unknown origin) at 0.3725 uM by competitive binding assay relative to control; type: protein-complex assay
Tubulin (Homo sapiens) [13] = molecular target: T1, Tubulin (Homo sapiens); experiment: Inhibition of [3H]colchicine binding to tubulin (unknown origin) at 2.5 uM by competitive binding assay relative to control; type: protein-complex assay
Tubulin (Homo sapiens) [14] = molecular target: T1, Tubulin (Homo sapiens); experiment: Inhibition of [3H]colchicine binding to tubulin (unknown origin) at 5 uM by competitive binding assay relative to control; type: protein-complex assay
Tubulin (Homo sapiens) [15] = molecular target: T1, Tubulin (Homo sapiens); experiment: Inhibition of [3H]colchicine binding to tubulin (unknown origin) at 10 uM by competitive binding assay relative to control; type: protein-complex assay
HUVEC = experiment: Vascular disruptive effect in HUVEC cells assessed as reduction in tube formation at 10 nM measured after 6 to 9 hrs; type: functional, cell-based; conditions: Homo sapiens, time 6-9 hrs
A549 [16] = experiment: Cell cycle arrest in human A549 cells assessed as increase in accumulation in G2/M phase incubated for 24 to 48 hrs by PI staining based flow cytometry analysis; type: functional; conditions: dose 5-20 nM, time 24-48 hrs, DDE = dose-dependent effect
A549 [17] = experiment: Induction of ferroptosis in human A549 cells assessed as induction of lipid […] accumulation at 5 to 20 nM incubated for 24 hrs by C11-BODIPY-581/591 staining based flow cytometry analysis; type: functional, cell-based; conditions: dose 5-20 nM
[18] = Acute oral toxicity in rat assessed as death at 550 mg/kg measured over 8 hours daily for 14 days; type: organism-based; conditions: in vivo, 336 h, time 14 day
[19] = Half life in ICR mouse at 10 mg/kg, po single administration measured for 24 hrs post treatment by LC-MS/MS analysis; type: ADME, organism-based; conditions: in vivo
[20] = Tmax in ICR mouse at 10 mg/kg, po single administration measured for 24 hrs post treatment by LC-MS/MS analysis; type: ADME, organism-based; conditions: in vivo
[21] = AUC (0 to t) in ICR mouse at 10 mg/kg, po single administration measured for 24 hrs post treatment by LC-MS/MS analysis; type: ADME, organism-based; conditions: in vivo
[22] = AUC (0 to infinity) in ICR mouse at 10 mg/kg, po single administration measured for 24 hrs post treatment by LC-MS/MS analysis; type: ADME, organism-based; parameters: time 24 hrs, dose 10 mg/kg, route po; conditions: in vivo
[23] = Cmax in ICR mouse at 1 mg/kg, iv single administration measured for 24 hrs post treatment by LC-MS/MS analysis; type: ADME, organism-based; parameters: time 24 hrs, dose 1 mg/kg, route iv; conditions: in vivo
[24] = AUC (0 to infinity) in ICR mouse at 1 mg/kg, iv single administration measured for 24 hrs post treatment by LC-MS/MS analysis; type: ADME, organism-based; parameters: time 24 hrs, dose 1 mg/kg, route iv; conditions: in vivo
[25] = MRT in ICR mouse at 1 mg/kg, iv single administration measured for 24 hrs post treatment by LC-MS/MS analysis; type: ADME, organism-based; conditions: in vivo
[26] = Clearance in ICR mouse at 1 mg/kg, iv single administration measured for 24 hrs post treatment by LC-MS/MS analysis; type: ADME, organism-based; conditions: in vivo
A549 [27] = experiment: In vivo antitumor activity against human A549 cells xenografted in athymic nude BALB/c mouse assessed as tumor weight at 10 mg/kg measured after 30 days (reference value: 1 gram); type: functional; conditions: time 30 day
A549 [28] = experiment: In vivo antitumor activity against human A549 cells xenografted in athymic nude BALB/c mouse assessed as tumor volume at 10 mg/kg measured after 30 days (reference value: 1503.3 mm^3); type: functional; conditions: time 30 day
A549 [29] = experiment: In vivo antitumor activity against human A549 cells xenografted in athymic nude BALB/c mouse assessed as tumor growth inhibition at 10 mg/kg measured after 30 days relative to control; type: functional; conditions: A549, 720 h, time 30 day, read-out: TGI
[30] = Toxicity in human A549 cells xenografted in athymic nude BALB/c nude mouse assessed as morphological changes in liver at 10 mg/kg, ip measured after 30 days by H and E staining based histological analysis; type: organism-based; conditions: in vivo, 720 h, time 30 day
[31] = Toxicity in human A549 cells xenografted in athymic nude BALB/c nude mouse assessed as morphological changes in heart at 10 mg/kg, ip measured after 30 days by H and E staining based histological analysis; type: organism-based; conditions: in vivo, 720 h, time 30 day
Tubulin (Homo sapiens) [32] = molecular target: T1, Tubulin (Homo sapiens); experiment: Induction of microtubule disruption in human A549 cells assessed as abnormal chromosomes at 5 to 20 uM incubated for 12 hrs by immunofluorescence based laser scanning confocal microscopic analysis; type: cell-based; conditions: dose 5-20 µM
Tubulin (Homo sapiens) [33] = molecular target: T1, Tubulin (Homo sapiens); experiment: Inhibition of tubulin polymerization (unknown origin) by microplate reader analysis; type: protein-complex assay; conditions: dose 5-0.16 µM, DDE = dose-dependent effect

## C=C(c1cc(OC)c(OC)c(OC)c1)c1ccc(OC)c(O)c1NC(=O)CO
A549 [1]
  Activity: Active
A2780
  IC50: 0.02 µM
MCF7 [2]
  IC50: 0.05 µM
HeLa
  Activity: Dde
HCT-8 [3]
  Activity: Dde
MCF7 [4]
  Activity: Dde
LoVo
  Activity: Dde
MGC-803
  Activity: Dde
[5]
  IC50: 1.32 µM
[6]
  IC50: 0.54 µM
[7]
  selectivity ratio: 145
[8]
  selectivity ratio: 54
A549 [9]
  Ratio IC50: 2
HCT-8 [10]
  IC50: 0.07 µM
[11]
  Ratio IC50: 2
Tubulin
  IC50: 0.58 µM
Tubulin (Homo sapiens) [12]
  inhibition: 4.07%
Tubulin (Homo sapiens) [13]
  inhibition: 64.8%
Tubulin (Homo sapiens) [14]
  inhibition: 78.5%
Tubulin (Homo sapiens) [15]
  inhibition: 85%
HUVEC
  Activity: Active
A549 [16]
  Activity: Dde
A549 [17]
  Activity: Active
[18]
  Activity: Toxic
[19]
  half-life: 127 min
[20]
  Tmax: 15 min
[21]
  AUCt: 2432.04 h/ng/mL
[22]
  AUC: 2463.76 h/ng/mL
[23]
  Cmax: 871 ng/mL
[24]
  AUC: 353.02 h/ng/mL
[25]
  MRT: 40.8 min
[26]
  clearance: 47.6 mL/min/kg
A549 [27]
  Activity: 0.2 g
A549 [28]
  Activity: 321.1 mm3
A549 [29]
  inhibition in vivo at 10 mg/kg: 78.6%
[30]
  Activity: Non-Toxic
[31]
  Activity: Non-Toxic
Tubulin (Homo sapiens) [32]
  Activity: Active
Tubulin (Homo sapiens) [33]
  inhibition: Dde
